Data reported in ChEMBL document CHEMBL5724914, “Linking interpersonal differences in gut microbiota composition and drug biotransformation activity” (2024).

What was measured:
[1] = human gut metagenome, 24 h, 2 µM
[2] = (§1) The drug is tested on Z-016 corresponding to mouse gut metagenome with ENA study accession number: PRJEB37062 and ENA sample accession number: ERS12561815 for biotransformation under anaerobic condition. The drug concentrations were measured over 9 timepoints collected between 0 and 24 hours of incubation by liquid-chromatography-coupled mass spectrometry (LC–MS); details: 2 µM
[3] = as §1, with “Z-011” for “Z-016”, “ERS12561811” for “ERS12561815”; details: 2 µM
[4] = human gut metagenome, 24 h, 2 µM; remark: listed apart in the source
[5] = human gut metagenome, 24 h, 2 µM; remark: listed apart in the source
[6] = human gut metagenome, 24 h, 2 µM; remark: listed apart in the source
[7] = human gut metagenome, 24 h, 2 µM; remark: listed apart in the source
[8] = as §1, with “WLS-310” for “Z-016”, “human” for “mouse”, “ERS12561785” for “ERS12561815”; details: 2 µM
[9] = human gut metagenome, 24 h, 2 µM; remark: listed apart in the source
[10] = as §1, with “WLS-082” for “Z-016”, “human” for “mouse”, “ERS12561751” for “ERS12561815”; details: 2 µM
[11] = as §1, with “WLS-170” for “Z-016”, “human” for “mouse”, “ERS12561762” for “ERS12561815”; details: 2 µM
[12] = human gut metagenome, 24 h, 2 µM; remark: listed apart in the source
[13] = human gut metagenome, 24 h, 2 µM; remark: listed apart in the source
[14] = as §1, with “Z-014” for “Z-016”, “rat” for “mouse”, “ERS12561814” for “ERS12561815”; details: 2 µM
[15] = as §1, with “Z-019” for “Z-016”, “rat” for “mouse”, “ERS12561818” for “ERS12561815”; details: 2 µM
[16] = as §1, with “WLS-039” for “Z-016”, “human” for “mouse”, “ERS12561746” for “ERS12561815”; details: 2 µM
[17] = as §1, with “WLS-220” for “Z-016”, “human” for “mouse”, “ERS12561769” for “ERS12561815”; details: 2 µM
[18] = as §1, with “Z-018” for “Z-016”, “pig” for “mouse”, “ERS12561817” for “ERS12561815”; details: 2 µM
[19] = human gut metagenome, 24 h, 2 µM; remark: listed apart in the source
[20] = as §1, with “Z-002” for “Z-016”, “rabbit” for “mouse”, “ERS12561802” for “ERS12561815”; details: 2 µM
Note: call rule not given here.

Row | SMILES | Bacterial Biotransformation [1] | Bacterial Biotransformation [2] | Bacterial Biotransformation [3] | Bacterial Biotransformation [4] | Bacterial Biotransformation [5] | Bacterial Biotransformation [6] | Bacterial Biotransformation [7] | Bacterial Biotransformation [8] | Bacterial Biotransformation [9] | Bacterial Biotransformation [10] | Bacterial Biotransformation [11] | Bacterial Biotransformation [12] | Bacterial Biotransformation [13] | Bacterial Biotransformation [14] | Bacterial Biotransformation [15] | Bacterial Biotransformation [16] | Bacterial Biotransformation [17] | Bacterial Biotransformation [18] | Bacterial Biotransformation [19] | Bacterial Biotransformation [20]
1 | CN/C(=N/CCSCc1nc[nH]c1C)NC#N [CIMETIDINE] | Compound NOT metabolized | Compound NOT metabolized | Compound NOT metabolized | Compound metabolized | Compound metabolized | Compound NOT metabolized | Compound NOT metabolized | Compound metabolized | Compound NOT metabolized | Compound metabolized | Compound metabolized | Compound NOT metabolized | Compound NOT metabolized | Compound NOT metabolized | Compound NOT metabolized | Compound NOT metabolized | Compound metabolized | Compound metabolized | Compound metabolized | Compound NOT metabolized
2 | Br.CN(C)CCCC1(c2ccc(F)cc2)OCc2cc(C#N)ccc21 (stereo not given) [CITALOPRAM HYDROBROMIDE] | Compound metabolized | Compound NOT metabolized | Compound metabolized | Compound metabolized | Compound metabolized | Compound NOT metabolized | Compound metabolized | Compound metabolized | Compound NOT metabolized | Compound NOT metabolized | Compound metabolized | Compound NOT metabolized | Compound NOT metabolized | Compound NOT metabolized | Compound NOT metabolized | Compound NOT metabolized | Compound NOT metabolized | Compound NOT metabolized | Compound NOT metabolized | Compound metabolized
3 | CN(C)CCC=C1c2ccccc2C=Cc2ccccc21 [CYCLOBENZAPRINE] | Compound metabolized | Compound NOT metabolized | Compound NOT metabolized | Compound metabolized | Compound metabolized | Compound NOT metabolized | Compound metabolized | Compound metabolized | Compound metabolized | Compound metabolized | Compound metabolized | Compound NOT metabolized | Compound metabolized | Compound NOT metabolized | Compound NOT metabolized | Compound metabolized | Compound metabolized | Compound metabolized | Compound metabolized | Compound metabolized
4 | O=C(Nc1ccccc1)OCC(CN1CCCCC1)OC(=O)Nc1ccccc1 (stereo not given) [DIPERODON] | Compound metabolized | Compound NOT metabolized | Compound NOT metabolized | Compound NOT metabolized | Compound metabolized | Compound NOT metabolized | Compound NOT metabolized | Compound metabolized | Compound NOT metabolized | Compound metabolized | Compound metabolized | Compound NOT metabolized | Compound NOT metabolized | Compound NOT metabolized | Compound NOT metabolized | Compound NOT metabolized | Compound metabolized | Compound NOT metabolized | Compound metabolized | Compound NOT metabolized
5 | CC(C)N(CCC(C(N)=O)(c1ccccc1)c1ccccn1)C(C)C.O=P(O)(O)O (stereo not given) [DISOPYRAMIDE PHOSPHATE] | Compound NOT metabolized | Compound NOT metabolized | Compound NOT metabolized | Compound NOT metabolized | Compound metabolized | Compound NOT metabolized | Compound NOT metabolized | Compound metabolized | Compound NOT metabolized | Compound NOT metabolized | Compound NOT metabolized | Compound NOT metabolized | Compound NOT metabolized | Compound NOT metabolized | Compound NOT metabolized | Compound NOT metabolized | Compound NOT metabolized | Compound NOT metabolized | Compound NOT metabolized | Compound NOT metabolized
6 | C[C@@H](CO)NC(=O)[C@@H]1C=C2c3cccc4[nH]cc(c34)C[C@H]2N(C)C1.O=C(O)/C=C\C(=O)O [ERGONOVINE MALEATE] | Compound NOT metabolized | Compound NOT metabolized | Compound NOT metabolized | Compound metabolized | Compound NOT metabolized | Compound NOT metabolized | Compound NOT metabolized | Compound metabolized | Compound NOT metabolized | Compound metabolized | Compound metabolized | Compound NOT metabolized | Compound NOT metabolized | Compound NOT metabolized | Compound NOT metabolized | Compound metabolized | Compound NOT metabolized | Compound metabolized | Compound metabolized | Compound NOT metabolized
7 | CCN(CC)C(C)CN1c2ccccc2Sc2ccccc21 (stereo not given) [ETHOPROPAZINE] | Compound metabolized | Compound NOT metabolized | Compound NOT metabolized | Compound metabolized | Compound metabolized | Compound NOT metabolized | Compound metabolized | Compound metabolized | Compound metabolized | Compound metabolized | Compound metabolized | Compound NOT metabolized | Compound metabolized | Compound NOT metabolized | Compound NOT metabolized | Compound metabolized | Compound metabolized | Compound metabolized | Compound metabolized | Compound metabolized
8 | Cc1nc(-c2ccc(OCC(C)C)c(C#N)c2)sc1C(=O)O [FEBUXOSTAT] | Compound metabolized | Compound metabolized | Compound NOT metabolized | Compound metabolized | Compound metabolized | Compound metabolized | Compound metabolized | Compound metabolized | Compound metabolized | Compound metabolized | Compound metabolized | Compound metabolized | Compound metabolized | Compound NOT metabolized | Compound NOT metabolized | Compound metabolized | Compound metabolized | Compound metabolized | Compound metabolized | Compound metabolized
